Data reported in ChEMBL document CHEMBL1201862, “PubChem BioAssay data set” (2004).
Calls of active or inactive are those of the source.

Key:
[1] = biological target: T1, Phospholipase D2 (Homo sapiens, UniProt O14939); assay: cellular phospholipase D2 inhibition IC50 – cell-based, dose response (AID 602147); type: functional;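 further: cellular assay in HEK293 cells overexpressing GFP-tagged PLD2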
[2] = biological target: Phospholipase D1 (Homo sapiens, UniProt Q13393); assay: PLD1 purified enzyme concentration response. [Related pubchem assays (depositor defined):AID588854]; type: functional
Sequence of Phospholipase D1 (Q13393 whole entry): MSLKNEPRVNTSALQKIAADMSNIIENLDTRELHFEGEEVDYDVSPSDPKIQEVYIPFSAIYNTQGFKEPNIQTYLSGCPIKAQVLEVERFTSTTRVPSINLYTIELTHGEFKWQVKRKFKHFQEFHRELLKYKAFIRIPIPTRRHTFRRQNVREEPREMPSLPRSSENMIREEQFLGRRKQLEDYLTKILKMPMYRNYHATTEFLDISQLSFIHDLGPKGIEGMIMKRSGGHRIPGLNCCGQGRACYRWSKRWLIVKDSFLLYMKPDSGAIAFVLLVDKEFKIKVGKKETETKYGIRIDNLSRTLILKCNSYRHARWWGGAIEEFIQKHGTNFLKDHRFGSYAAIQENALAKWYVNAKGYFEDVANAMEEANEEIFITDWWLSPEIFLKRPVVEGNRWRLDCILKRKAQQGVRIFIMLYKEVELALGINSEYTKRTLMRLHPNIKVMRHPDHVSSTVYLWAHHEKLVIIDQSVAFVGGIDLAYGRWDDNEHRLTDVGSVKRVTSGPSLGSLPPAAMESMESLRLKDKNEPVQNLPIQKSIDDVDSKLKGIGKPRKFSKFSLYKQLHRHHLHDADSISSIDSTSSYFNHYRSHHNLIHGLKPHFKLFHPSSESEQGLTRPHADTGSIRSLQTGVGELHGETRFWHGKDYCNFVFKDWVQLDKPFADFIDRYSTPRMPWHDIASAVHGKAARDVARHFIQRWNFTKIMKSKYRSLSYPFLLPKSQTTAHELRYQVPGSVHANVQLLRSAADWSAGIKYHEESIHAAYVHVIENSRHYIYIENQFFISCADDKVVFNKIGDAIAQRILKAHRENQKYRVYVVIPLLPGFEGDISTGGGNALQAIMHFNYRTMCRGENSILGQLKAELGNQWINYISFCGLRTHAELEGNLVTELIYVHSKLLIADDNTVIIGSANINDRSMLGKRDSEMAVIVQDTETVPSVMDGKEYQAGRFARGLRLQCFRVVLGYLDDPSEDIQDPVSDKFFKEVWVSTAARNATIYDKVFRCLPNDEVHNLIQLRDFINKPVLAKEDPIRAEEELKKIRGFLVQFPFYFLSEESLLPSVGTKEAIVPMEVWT

[3] = biological target: T1, Phospholipase D2; assay: PLD2 purified enzyme concentration response. [Related pubchem assays (depositor defined):AID588854]; type: functional
[4] = cells; type: functional, cell-based
[5] = cells; type: functional, cell-based; remark: listed apart in the source
[6] = test system: HEK293; assay: cells; type: functional, cell-based; details: Homo sapiens
[7] = biological target: Nuclear receptor subfamily 0 group B member 1 (Homo sapiens, UniProt P51843); assay: Luminescence-based cell-based high throughput dose response assay for inhibitors of the orphan nuclear receptor subfamily 0, group B, member 1 (DAX1; NR0B1). [Related pubchem assays (depositor defined):AID504766, AID504790]; type: functional
Sequence of Nuclear receptor subfamily 0 group B member 1 (P51843 whole entry, the tested form may be a part): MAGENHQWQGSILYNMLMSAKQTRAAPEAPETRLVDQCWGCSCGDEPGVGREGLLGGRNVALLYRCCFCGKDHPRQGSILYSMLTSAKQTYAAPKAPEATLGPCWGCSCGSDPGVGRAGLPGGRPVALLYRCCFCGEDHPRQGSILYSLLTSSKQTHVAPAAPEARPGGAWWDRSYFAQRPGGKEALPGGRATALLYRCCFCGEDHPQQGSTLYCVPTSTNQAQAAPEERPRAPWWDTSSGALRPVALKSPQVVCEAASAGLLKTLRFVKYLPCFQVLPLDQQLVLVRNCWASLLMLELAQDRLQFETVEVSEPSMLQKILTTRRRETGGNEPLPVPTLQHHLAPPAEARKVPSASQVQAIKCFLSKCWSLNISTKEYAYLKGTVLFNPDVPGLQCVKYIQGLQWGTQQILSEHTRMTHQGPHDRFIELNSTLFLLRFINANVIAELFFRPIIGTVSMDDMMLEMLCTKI

[8] = biological target: T2, Oxysterols receptor LXR-beta (Homo sapiens, UniProt P55055); type: functional, cell-based;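 further: agonist activity at LXR measured by a cell-based luminescence readout across a dose range, run as a counterscreen for daf-12 agonists; HEK293 cells with Gal4-LXR fusion and GAL4-driven luciferase reporter; potency for activation of Gal4-LXR reporter so compounds are agonists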
T2 sequence (P55055 whole entry): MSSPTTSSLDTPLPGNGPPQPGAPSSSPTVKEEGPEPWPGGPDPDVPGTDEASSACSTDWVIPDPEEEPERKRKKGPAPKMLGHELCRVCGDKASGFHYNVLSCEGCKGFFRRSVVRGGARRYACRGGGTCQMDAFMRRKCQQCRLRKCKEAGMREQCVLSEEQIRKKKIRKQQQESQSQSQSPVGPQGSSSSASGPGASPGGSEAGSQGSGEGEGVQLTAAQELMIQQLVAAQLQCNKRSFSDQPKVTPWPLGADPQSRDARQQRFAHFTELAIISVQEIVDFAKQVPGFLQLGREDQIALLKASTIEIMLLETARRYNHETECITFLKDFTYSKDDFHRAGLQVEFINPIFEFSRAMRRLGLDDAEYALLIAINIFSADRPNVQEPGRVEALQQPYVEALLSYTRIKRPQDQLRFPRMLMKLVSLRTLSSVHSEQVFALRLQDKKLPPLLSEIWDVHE

[9] = CellTiter-Glo luminescence survival assay, SW480 colon tumor line, concentration-response curve, half-maximal inhibitory concentration (AID 1117338); type: functional
[10] = RKO cell viability reduction, dose response, CellTiter-Glo luminescence (AID 1117322); type: functional
[11] = cytotoxicity toward HCT116 cells – cell-based, CellTiter-Glo luminescence, IC50, dose response (AID 1117332); type: functional; details: HCT-116
[12] = SNU-C1 cell viability reduction, dose response, CellTiter-Glo luminescence (AID 1117323); type: functional, cell-based
[13] = cytotoxicity toward Colo320 cells – cell-based, CellTiter-Glo luminescence, IC50, dose response (AID 1117334); type: functional; details: COLO 320
[14] = cytotoxicity toward HT-29 cells – cell-based, CellTiter-Glo luminescence, IC50, dose response (AID 1117330); type: functional
[15] = Reduced DLD-1 viability, concentration-response, CellTiter-Glo luminescence (AID 1117352); type: functional
[16] = HCT116 cell viability decrease, GSK3B pretreatment – CellTiter-Glo, IC50, dose response (AID 1117339); type: functional; details: HCT-116
[17] = biological target: Dual specificity protein phosphatase 3 (Homo sapiens, UniProt P51452); assay: SAR VHR1 Fluorescent Assay for In Vitro dose response studies Set 3. [Related pubchem assays (depositor defined):AID1654, AID1661, AID1878]; type: functional
Sequence of Dual specificity protein phosphatase 3 (P51452 whole entry): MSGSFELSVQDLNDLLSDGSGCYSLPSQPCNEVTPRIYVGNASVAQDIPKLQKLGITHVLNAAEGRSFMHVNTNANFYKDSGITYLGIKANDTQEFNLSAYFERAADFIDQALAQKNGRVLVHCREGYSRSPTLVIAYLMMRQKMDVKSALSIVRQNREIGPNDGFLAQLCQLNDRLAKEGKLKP

[18] = test system: Streptococcus sp. 'group A'; assay: Streptococcus pyogenes SK(-)GAS viability under kanamycin – luminescence, BacTiterGlo, confirmation, counter-screen for streptokinase expression inhibitor project, dose response (AID 1900); type: functional, organism-based
[19] = biological target: T3, Streptokinase A (Streptococcus pyogenes serotype M1, UniProt P10520); assay: viability-normalized secreted streptokinase activity reduction – plasminogen activation absorbance, OD405, dose response (AID 1914); type: functional, Streptococcus pyogenes M1 GAS;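 further: secreted streptokinase activity via plasminogen activation per viability signal from cell pellet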
T3 sequence (P10520 whole entry): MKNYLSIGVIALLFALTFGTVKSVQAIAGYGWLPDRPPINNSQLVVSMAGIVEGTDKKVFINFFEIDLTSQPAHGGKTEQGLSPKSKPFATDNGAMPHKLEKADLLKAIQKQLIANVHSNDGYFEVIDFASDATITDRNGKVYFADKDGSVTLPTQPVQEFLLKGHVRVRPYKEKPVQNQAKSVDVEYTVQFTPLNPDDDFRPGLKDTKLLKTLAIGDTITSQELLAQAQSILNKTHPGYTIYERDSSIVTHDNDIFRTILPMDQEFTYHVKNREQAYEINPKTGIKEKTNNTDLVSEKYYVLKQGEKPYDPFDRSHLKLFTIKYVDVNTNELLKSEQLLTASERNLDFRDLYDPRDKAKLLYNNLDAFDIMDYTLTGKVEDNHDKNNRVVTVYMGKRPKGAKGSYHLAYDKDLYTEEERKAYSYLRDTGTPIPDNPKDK

[20] = Trypanosoma cruzi growth suppression in host cells – NIH3T3 host cells, beta-gal luminescence, confirmation (AID 2044); type: functional, cell-based;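 further: intracellular parasites grown in NIH/3T3 mouse fibroblasts as host cells; luminescent beta-galactosidase reporter signal from transgenic T. cruzi replicating inside host cells; inhibitors lower the luminescence signal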
[21] = NIH3T3 cell viability loss – ATP luminescence, mouse fibroblasts, counter-screen, dose response (AID 2010); type: functional, cell-based;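 further: cells exposed to compound for about 90 hours before reading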
[22] = test system: Streptococcus; assay: GAS UMAA2166 growth inhibition – luminescence, BacTiterGlo, counter-screen for streptokinase expression inhibitor project, dose response (AID 1915); type: functional, organism-based;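 further: potency for reduction of bacterial viability or growth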
[23] = Luminescence Cell-Based Dose Retest to Confirm Inhibitors of Cancer Stem Cells. [Related pubchem assays (depositor defined):AID2717, AID2721]; type: functional; details: Homo sapiens
[24] = biological target: T4, Microphthalmia-associated transcription factor (Homo sapiens, UniProt O75030); assay: reducers of TRPM1 reporter luminescence, concentration series – cell-based, SK-MEL-5, cherry-picked, set 3, MITF inhibitor project, dose response (AID 493073); type: functional;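 further: SK-MEL-5 melanoma cells with luciferase driven by the MITF target TRPM1 promoter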
T4 sequence (O75030 whole entry): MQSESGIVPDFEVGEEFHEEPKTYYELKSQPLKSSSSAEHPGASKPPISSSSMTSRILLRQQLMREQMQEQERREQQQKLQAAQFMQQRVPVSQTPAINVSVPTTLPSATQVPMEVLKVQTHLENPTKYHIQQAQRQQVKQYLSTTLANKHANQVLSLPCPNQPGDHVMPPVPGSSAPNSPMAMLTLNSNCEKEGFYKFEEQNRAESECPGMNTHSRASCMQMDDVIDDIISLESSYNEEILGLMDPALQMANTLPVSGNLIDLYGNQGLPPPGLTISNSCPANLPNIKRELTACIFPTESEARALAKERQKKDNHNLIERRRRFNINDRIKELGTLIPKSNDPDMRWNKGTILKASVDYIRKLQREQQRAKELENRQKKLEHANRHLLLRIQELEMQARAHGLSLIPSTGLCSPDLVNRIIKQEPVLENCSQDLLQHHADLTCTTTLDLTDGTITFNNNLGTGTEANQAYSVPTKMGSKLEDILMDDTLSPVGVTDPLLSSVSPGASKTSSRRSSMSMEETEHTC

[25] = test system: A-375; assay: MITF: Counter assay: A375 proliferation Measured in Cell-Based System Using Plate Reader - 2084-03_Inhibitor_Dose_DryPowder_Activity. [Related pubchem assays (depositor defined):AID488944]; type: functional; details: Homo sapiens
[26] = test system: A-375; assay: proliferation inhibition in MITF-low A375 cells – cell-based, cherry-pick samples, set 2, counter-screen for MITF modulator project, dose response (AID 540335); type: functional; details: Homo sapiens

T1 sequence (O14939 whole entry): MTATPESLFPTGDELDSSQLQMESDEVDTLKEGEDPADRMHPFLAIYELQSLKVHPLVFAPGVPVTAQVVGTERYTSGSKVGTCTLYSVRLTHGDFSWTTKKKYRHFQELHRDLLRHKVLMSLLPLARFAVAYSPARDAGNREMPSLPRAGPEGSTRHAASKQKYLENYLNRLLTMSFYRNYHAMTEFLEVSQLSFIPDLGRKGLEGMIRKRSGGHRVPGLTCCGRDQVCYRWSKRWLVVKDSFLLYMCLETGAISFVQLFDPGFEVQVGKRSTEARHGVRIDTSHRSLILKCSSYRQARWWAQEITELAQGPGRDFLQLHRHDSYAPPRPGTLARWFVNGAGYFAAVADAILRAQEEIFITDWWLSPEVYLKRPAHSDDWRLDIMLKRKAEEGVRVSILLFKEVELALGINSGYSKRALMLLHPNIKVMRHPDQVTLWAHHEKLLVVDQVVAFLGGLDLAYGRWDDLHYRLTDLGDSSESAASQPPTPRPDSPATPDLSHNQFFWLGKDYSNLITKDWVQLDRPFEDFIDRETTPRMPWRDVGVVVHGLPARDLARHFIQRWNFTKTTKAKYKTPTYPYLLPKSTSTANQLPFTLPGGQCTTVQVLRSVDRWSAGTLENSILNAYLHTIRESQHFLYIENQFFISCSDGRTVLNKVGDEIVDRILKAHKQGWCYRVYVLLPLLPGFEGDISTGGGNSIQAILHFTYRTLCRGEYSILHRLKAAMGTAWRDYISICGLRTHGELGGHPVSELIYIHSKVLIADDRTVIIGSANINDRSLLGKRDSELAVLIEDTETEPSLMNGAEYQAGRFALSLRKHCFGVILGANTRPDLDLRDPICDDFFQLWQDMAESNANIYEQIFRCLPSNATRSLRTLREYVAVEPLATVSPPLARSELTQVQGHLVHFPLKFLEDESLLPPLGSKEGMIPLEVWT

## C[C@@H](CN1CCC2(CC1)C(=O)NCN2c1ccccc1)NC(=O)c1ccc(F)c(F)c1
[1]
  IC50: 0.21 µM (active)
[2]
  IC50: 2.15 µM (active)
[3]
  IC50: 2.22 µM (active)

## Nc1ccc(C(=O)Nc2ccccc2N)cc1 [DINALINE]
[4]
  EC50: 18.7 µM (active)
[5]
  EC50: > 350 µM (not active)
[6]
  IC50: 0.255 µM (active)
[7]
  IC50: 19.8 µM (inactive)
[8]
  EC50: > 67.6 µM (inactive)
[9]
  IC50: > 20 µM (inactive)
[10]
  IC50: > 20 µM (inactive)
[11]
  IC50: > 6.67 µM (inactive)
[12]
  IC50: > 20 µM (inactive)
[13]
  IC50: > 20 µM (inactive)
[14]
  IC50: > 20 µM (inactive)
[15]
  IC50: > 20 µM (inactive)
[16]
  IC50: 12.9 µM (inactive)

## COc1ccc(C(=O)Nc2nc3c(OC)ccc(C)c3s2)cc1
[17]
  IC50: 48.7 µM (active)

## O=C(Nc1cccc(Cl)c1)Nc1cc(S(=O)(=O)N2CCCCC2)ccc1Cl
[18]
  EC50: 11.8 µM (active)
[19]
  EC50: 4.59 µM (active)
[20]
  EC50: 1.91 µM (active)
[21]
  EC50: > 60 µM (not active)
[22]
  EC50: 26.6 µM (active)
[23]
  AC50: 2.59 µM (active)
[24]
  AC50: 12 µM (active)
[25]
  AC50: > 11 µM (active)
[26]
  AC50: > 11 µM (active)
